In ChEMBL document CHEMBL5606460, “ASAP - DENV-2 NS2B-NS3 protease fluorescence single point” (2024):

Key:
[1] = biological target: Genome polyprotein (dengue virus type 2) (UniProt P29990)
[2] = biological target: Genome polyprotein (dengue virus type 2) (UniProt P29990); conditions: Thailand/16681/1984, Concentration 25.0 uM, Number of replicates 1.0
[3] = Thailand/16681/1984, Concentration 100.0 uM, Number of replicates 1.0
[4] = Thailand/16681/1984, Concentration 200.0 uM, Number of replicates 1.0
[5] = Thailand/16681/1984, Concentration 50.0 uM, Number of replicates 1.0
[6] = Thailand/16681/1984, Concentration 150.0 uM, Number of replicates 1.0

Row | Compound | inhibition [1, 3] [%] | inhibition [1, 4] [%] | inhibition [1, 5] [%] | inhibition [1, 6] [%] | further results
1 | c1ccc2[nH]c(CC3CCN(Cc4nccs4)CC3)nc2c1 | -1.22 | -8.35 | – | – | –
2 | O=Cc1nc(-c2ccccc2Cl)n2ccccc12 | – | – | – | – | inhibition [2]: 20.2%
3 | [O-][S@@+](Cc1nc(-c2cccs2)no1)c1cccs1 | 3.98 | 5.82 | 0.907 | – | –
4 | FC(F)(F)c1nc(CNCc2cocn2)cs1 | 1.67 | -3.73 | – | -9.44 | –
5 | CN(C)c1ccc(C=C(C#N)C(N)=O)cc1 | – | – | – | – | inhibition [2]: 20.8%
6 | NC(=O)c1ccc(Cn2nnc(C=Cc3ccccc3)n2)cc1 | 8.5 | 12.7 | -4.9 | 4.33 | –
7 | COc1ccc2c(O)nn(S(=O)(=O)c3ccc(C(=O)O)cc3)c2c1 | 5.93 | -6.38 | – | – | –
8 | Cc1nc(C=O)c2ccccn12 | – | – | – | – | inhibition [2]: 33.3%
9 | CCSc1nnc(SCCn2nc3ccccn3c2=O)s1 | 5.4 | 2.68 | – | – | –
10 | Cc1sc2nc(-c3cccs3)[nH]c(=O)c2c1C | 0.922 | -9.15 | -5.01 | – | –
11 | Cc1cc(NS(=O)(=O)c2ccc(S(=O)(=O)F)cc2)c[nH]c1=O | – | – | – | – | inhibition [2]: 19.6%
12 | O=S(=O)(CCOc1ccccc1)c1nccs1 | -2.8 | – | -5.02 | – | –
13 | O=Cc1ccc(N2CCC(C(=O)O)CC2)cc1 | – | – | – | – | inhibition [2]: 47.6%
14 | N=C(N)NCCC[C@H](NC(=O)c1nccs1)C(=O)N[C@@H](CCCCN)C(=O)N[C@@H](C(N)=O)c1ccc(OCc2ccc(C(F)(F)F)cc2)cc1 | – | – | – | – | inhibition ([1]; Thailand/16681/1984, Concentration 0.309 uM, Number of replicates 2.0, Standard deviation 3.0176373786002046 %): -3.85%; inhibition ([1]; Thailand/16681/1984, Concentration 0.926 uM, Number of replicates 2.0, Standard deviation 1.4110895026482932 %): 12.5%; inhibition ([1]; Thailand/16681/1984, Concentration 2.78 uM, Number of replicates 2.0, Standard deviation 1.2681150356250568 %): 36.5%; inhibition ([1]; Thailand/16681/1984, Concentration 8.33 uM, Number of replicates 2.0, Standard deviation 1.3787183923415196 %): 69.8%; inhibition ([1]; Thailand/16681/1984, Concentration 25.0 uM, Number of replicates 2.0, Standard deviation 1.0239143117161142 %): 89.5%
15 | c1nnc(SCCCSc2nncs2)s1 | -7.13 | -0.768 | -6.11 | -4.63 | –
16 | Cc1nnc(CSc2ncnc3sccc23)o1 | 30.9 | 55 | 8.23 | 40.5 | –
17 | N=C(N)NCCC[C@H](NC(=O)[C@H](Cc1ccc(CN)cc1)NC(=O)c1ccccc1)B(O)O | – | – | – | – | inhibition ([1]; Thailand/16681/1984, Concentration 0.103 uM, Number of replicates 2.0, Standard deviation 1.1552277516231042 %): 13.2%; inhibition ([1]; Thailand/16681/1984, Concentration 0.309 uM, Number of replicates 2.0, Standard deviation 1.403761128919186 %): 39.2%; inhibition ([1]; Thailand/16681/1984, Concentration 0.926 uM, Number of replicates 2.0, Standard deviation 1.9316423333512027 %): 73.2%; inhibition ([1]; Thailand/16681/1984, Concentration 2.78 uM, Number of replicates 2.0, Standard deviation 0.6346068363669732 %): 91.6%; inhibition ([1]; Thailand/16681/1984, Concentration 8.33 uM, Number of replicates 2.0, Standard deviation 0.06829499639101128 %): 97.4%; inhibition ([1]; Thailand/16681/1984, Concentration 25.0 uM, Number of replicates 2.0, Standard deviation 0.08100823932985672 %): 98.5%
18 | Cc1c(C=O)c2ccccn2c1C(=O)c1ccncc1 | – | – | – | – | inhibition [2]: 41.1%
19 | O=S(=O)(c1cccs1)N1CCN(CC=Cc2ccccc2)CC1 | 21.8 | 2.78 | -7.46 | -8.18 | –
20 | O=c1c2cccn2cnn1Cc1cnc(Cl)s1 | 0.188 | 7.35 | -5.2 | -0.072 | –
21 | O=c1ccccn1-c1ncc(Br)cn1 | -4.93 | 1.63 | -2.83 | -7.63 | –

Row | Compound | inhibition [1, 3] [%] | inhibition [1, 4] [%] | inhibition [1, 5] [%] | inhibition [1, 6] [%] | further results
22 | COc1nc(Cl)c(CSc2nc(C)co2)s1 | 2.83 | 12.2 | – | -6.96 | –
23 | c1csc(-c2nnc(Sc3ncnc4sccc34)o2)c1 | 5.5 | 9.38 | -7.64 | 1.07 | –
24 | c1cc(-c2nnc(NCc3nnn[nH]3)s2)no1 | -2.38 | -2.02 | – | – | –
25 | O=c1ccc(-n2cncn2)nn1CC=Cc1ccccc1 | -7 | -8.49 | -6.72 | – | –
26 | Brc1ccsc1CSc1cnn[nH]1 | 11.3 | 11 | -4.71 | – | –
27 | N#Cc1ccc(OCCn2nnn(-c3ccccc3)c2=O)cc1 | -0.08 | -2.04 | -7.79 | -4.33 | –
28 | O=C(NCc1ccco1)c1csc(Br)c1 | 6.83 | 0.818 | -4.81 | – | –
29 | Brc1cnn(C2CCN(Cc3csnn3)CC2)c1 | 5.64 | 5.63 | -3.22 | – | –
30 | O=Cc1ccc(N2CCC(C(=O)O)CC2)o1 | – | – | – | – | inhibition [2]: 40.9%
31 | O=C(NCc1nccs1)c1sccc1Cl | 4.39 | -1.05 | 0.507 | -3.58 | –
32 | C[S@@+]([O-])c1nncn1Cc1ccc(Cl)s1 | 0.166 | -6.67 | – | – | –
33 | O=C(O)c1sc2cccnc2c1Br | 12 | 2.09 | -8.71 | – | –
34 | Cn1ncnc1Sc1nc(C2CCCC2)ns1 | 5.27 | 3.96 | -3.66 | -9.35 | –
35 | [O-][S@@+](Cc1ncccn1)c1ncccc1Br | 2.18 | -0.101 | -6.39 | -5.36 | –
36 | Cc1nnnn1Cc1ncc(Br)s1 | – | -5 | – | – | –
37 | O=c1ccn(Cc2cc(=O)n3ccccc3n2)c2ccsc12 | 3.86 | 4.39 | -1.76 | -8.57 | –
38 | Cc1c(C=O)c2ccccn2c1C#N | – | – | – | – | inhibition [2]: 30.7%
39 | FC(F)(F)c1nnc(COc2cncnc2)s1 | -9.02 | -8.02 | – | – | –
40 | O=c1[nH]c(CSc2ccccc2Cl)nc2ccsc12 | 18 | 26 | -5.28 | -7.62 | –
41 | O=S1(=O)CCN(CC#Cc2ccc3sncc3c2)CC1 | -9.23 | 2.54 | – | – | –
42 | Cc1nnsc1Cn1ccc(Br)n1 | 0.654 | -4.2 | -5.41 | -3.97 | –

Row | Compound | inhibition [1, 3] [%] | inhibition [1, 4] [%] | inhibition [1, 5] [%] | inhibition [1, 6] [%] | further results
43 | O=c1c2ccccc2nnn1CSc1nnc(-c2ccccc2)o1 | 36.2 | 52.5 | 2.98 | 31.6 | –
44 | O=C(O)c1c(Br)sc2nnsc12 | -5.37 | 4.97 | -3.57 | -5.55 | –
45 | Brc1cccc2cn(Cc3ncccn3)nc12 | 6.27 | 14.4 | -7.17 | -8.46 | –
46 | c1ccc2nc(SCc3cn4ccccc4n3)cnc2c1 | 10.2 | 30.9 | -5.61 | 7.18 | –
47 | O=c1c2ccccc2ncn1CCCn1cnc2ccccc2c1=O | 4.08 | 1.74 | – | – | –
48 | Cn1c(Sc2nc3ccccc3o2)nc2sccc2c1=O | 6.37 | -0.609 | -1.81 | -7.45 | –
49 | Brc1nc(Br)n(Cc2cscn2)n1 | 2.39 | -1.34 | -6.97 | -9.57 | –
50 | N#Cc1ccc(S(=O)(=O)CCn2nc(-c3ccco3)oc2=O)cc1 | 5.55 | 2.14 | -4.79 | – | –
51 | O=Cc1ccc(N2CCCCC2)cc1 | – | – | – | – | inhibition [2]: 37.1%
52 | O=c1oc2cccnc2n1CC=Cc1ccccc1 | 18.7 | 16.8 | – | -5.05 | –
53 | Nc1nc(S(=O)(=O)c2ccccc2)c(Cl)s1 | -1.35 | – | – | – | –
54 | c1ccc(C2CCN(Cc3ccc4nccnc4c3)CC2)nc1 | 3.52 | -1.29 | -8.13 | -6.13 | –
55 | COC(=O)c1cc2scc(Br)c2[nH]1 | 11.7 | 7.72 | -5.44 | – | –
56 | N#Cc1csc(CSc2nnc(C(F)(F)F)s2)n1 | -9.01 | – | – | -4.46 | –
57 | O=Cc1ccc(N2CCCCCC2)cc1 | – | – | – | – | inhibition [2]: 32.8%
58 | c1csc(CSc2nnc(Cn3cncn3)o2)c1 | 4.46 | -3.48 | – | – | –
59 | COCc1nn(CC#Cc2ccc(Cl)cc2)c(=O)o1 | 5.18 | 2.77 | -7.03 | -4.23 | –
60 | Clc1snnc1CN1CCC(c2nc3ccccc3o2)CC1 | 2.94 | 8.81 | -8.6 | -7.28 | –
61 | CC[C@H]1CO[C@H](C)CN1c1ccc(C=O)cn1 | – | – | – | – | inhibition [2]: 41.1%
62 | c1cc2sccc2c(N2CCN(Cc3ccc4cn[nH]c4c3)CC2)n1 | 8.61 | -0.953 | – | – | –
63 | Nc1ccc2ccc(B(O)O)cc2c1 | – | – | – | – | inhibition [2]: 15.2%
